Legend:
Experiment in all cases: Test C postemergence
Type in all cases: in vivo
[1] = system: Italian ryegrass (Lolium multiflorum); conditions: scale 0 to 100
Method in brief: (§1)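 Seeded loam-sand soil (preemergence) or young potted plants of 2-18 cm (postemergence) received test chemical formulated with surfactant in a non-phytotoxic solvent. Pots were kept in the greenhouse for 13-15 days before a visual 0-100 control rating relative to controls.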

[2] = system: large (Lg) crabgrass (Digitaria sanguinalis); conditions: scale 0 to 100
Method in brief: as §1

[3] = system: winter wheat (Triticum aestivum); conditions: scale 0 to 100
Method in brief: as §1

[4] = system: ragweed (common ragweed, Ambrosia elatior); conditions: scale 0 to 100
Method in brief: as §1

soybean (Glycine max) = conditions: scale 0 to 100
Method in brief: as §1

kochia (Kochia scoparia) = conditions: scale 0 to 100
Method in brief: as §1

[5] = system: velvetleaf (Abutilon theophrasti); conditions: scale 0 to 100
Method in brief: as §1

wild oat (Avena fatua) = conditions: scale 0 to 100
Method in brief: as §1

[6] = system: yellow nutsedge (Cyperus esculentus); conditions: scale 0 to 100
Method in brief: as §1

[7] = system: johnsongrass (Sorghum halepense); conditions: scale 0 to 100
Method in brief: as §1

[8] = system: oilseed rape (Brassica napus); conditions: scale 0 to 100
Method in brief: as §1

corn (Zea mays) = conditions: scale 0 to 100
Method in brief: as §1

[9] = system: galium (catchweed bedstraw, Galium aparine); conditions: scale 0 to 100
Method in brief: as §1

[10] = system: chickweed (common chickweed, Stellaria media); conditions: scale 0 to 100
Method in brief: as §1

[11] = system: barnyardgrass (Echinochloa crus-galli)
Method in brief: as §1

[12] = system: giant foxtail (Setaria faberii); conditions: scale 0 to 100
Method in brief: as §1

[13] = system: lambsquarters (Chenopodium album); conditions: scale 0 to 100
Method in brief: as §1

[14] = system: morningglory (Ipomoea coccinea); conditions: scale 0 to 100
Method in brief: as §1

[15] = system: blackgrass (Alopecurus myosuroides); conditions: scale 0 to 100
Method in brief: as §1

Fc1ccc(F)c(Oc2ncc(C(F)(F)F)cn2)c1Oc1ncc(Cl)cn1 [Compound 25]
50: Plant response rating, Soybean (soybean (Glycine max); Postemergence, 31 g ai/ha) | Plant response rating, Kochia (kochia (Kochia scoparia); Postemergence, 16 g ai/ha) | Plant response rating, Oilseed Rape ([8]; Postemergence, 31 g ai/ha) | Plant response rating, Galium ([9]; 8 g ai/ha, postemergence) | Plant response rating, Chickweed ([10]; Postemergence, 31 g ai/ha)
55: Plant response rating, Galium ([9]; Postemergence, 16 g ai/ha)
75: Plant response rating, Kochia (kochia (Kochia scoparia); Postemergence, 62 g ai/ha) | Plant response rating, Lambsquarters ([13]; Postemergence, 62 g ai/ha)
15: Plant response rating, Oat, Wild (wild oat (Avena fatua); Postemergence, 62 g ai/ha) | Plant response rating, Morningglory ([14]; Postemergence, 62 g ai/ha)
45: Plant response rating, Soybean (soybean (Glycine max); Postemergence, 62 g ai/ha) | Plant response rating, Oilseed Rape ([8]; Postemergence, 62 g ai/ha)
30: Plant response rating, Soybean (soybean (Glycine max); 8 g ai/ha, postemergence) | Plant response rating, Velvetleaf ([5]; 8 g ai/ha, postemergence) | Plant response rating, Velvetleaf ([5]; Postemergence, 62 g ai/ha) | Plant response rating, Oilseed Rape ([8]; 8 g ai/ha, postemergence)
60: Plant response rating, Kochia (kochia (Kochia scoparia); Postemergence, 31 g ai/ha) | Plant response rating, Velvetleaf ([5]; Postemergence, 31 g ai/ha) | Plant response rating, Chickweed ([10]; Postemergence, 62 g ai/ha) | Plant response rating, Lambsquarters ([13]; 8 g ai/ha, postemergence)
80: Plant response rating, Galium ([9]; Postemergence, 31 g ai/ha) | Plant response rating, Galium ([9]; Postemergence, 62 g ai/ha) | Plant response rating, Lambsquarters ([13]; Postemergence, 16 g ai/ha) | Plant response rating, Lambsquarters ([13]; Postemergence, 31 g ai/ha)
25: Plant response rating, Ragweed ([4]; Postemergence, 62 g ai/ha)
0: Plant response rating, Ryegrass, Italian ([1]; 8 g ai/ha, postemergence) | Plant response rating, Crabgrass, Large ([2]; 8 g ai/ha, postemergence) | Plant response rating, Crabgrass, Large ([2]; Postemergence, 16 g ai/ha) | Plant response rating, Crabgrass, Large ([2]; Postemergence, 31 g ai/ha) | Plant response rating, Wheat ([3]; 8 g ai/ha, postemergence) | Plant response rating, Wheat ([3]; Postemergence, 31 g ai/ha) | Plant response rating, Wheat ([3]; Postemergence, 62 g ai/ha) | Plant response rating, Ragweed ([4]; 8 g ai/ha, postemergence) | Plant response rating, Kochia (kochia (Kochia scoparia); 8 g ai/ha, postemergence) | Plant response rating, Nutsedge, Yellow ([6]; 8 g ai/ha, postemergence) | Plant response rating, Johnsongrass ([7]; 8 g ai/ha, postemergence) | Plant response rating, Chickweed ([10]; 8 g ai/ha, postemergence) | Plant response rating, Foxtail, Giant ([12]; 8 g ai/ha, postemergence) | Plant response rating, Foxtail, Giant ([12]; Postemergence, 16 g ai/ha) | Plant response rating, Foxtail, Giant ([12]; Postemergence, 31 g ai/ha) | Plant response rating, Blackgrass ([15]; 8 g ai/ha, postemergence) | Plant response rating, Blackgrass ([15]; Postemergence, 16 g ai/ha)
20: Plant response rating, Chickweed ([10]; Postemergence, 16 g ai/ha) | Plant response rating, Morningglory ([14]; 8 g ai/ha, postemergence)
10: Plant response rating, Ragweed ([4]; Postemergence, 31 g ai/ha) | Plant response rating, Oat, Wild (wild oat (Avena fatua); Postemergence, 31 g ai/ha) | Plant response rating, Nutsedge, Yellow ([6]; Postemergence, 62 g ai/ha) | Plant response rating, Barnyardgrass ([11]; Postemergence, 62 g ai/ha, scale 0 to 100) | Plant response rating, Morningglory ([14]; Postemergence, 31 g ai/ha)
5: Plant response rating, Ryegrass, Italian ([1]; Postemergence, 31 g ai/ha) | Plant response rating, Ryegrass, Italian ([1]; Postemergence, 62 g ai/ha) | Plant response rating, Crabgrass, Large ([2]; Postemergence, 62 g ai/ha) | Plant response rating, Oat, Wild (wild oat (Avena fatua); 8 g ai/ha, postemergence) | Plant response rating, Nutsedge, Yellow ([6]; Postemergence, 31 g ai/ha) | Plant response rating, Johnsongrass ([7]; Postemergence, 16 g ai/ha) | Plant response rating, Johnsongrass ([7]; Postemergence, 31 g ai/ha) | Plant response rating, Johnsongrass ([7]; Postemergence, 62 g ai/ha) | Plant response rating, Corn (corn (Zea mays); 8 g ai/ha, postemergence) | Plant response rating, Corn (corn (Zea mays); Postemergence, 16 g ai/ha) | Plant response rating, Corn (corn (Zea mays); Postemergence, 31 g ai/ha) | Plant response rating, Corn (corn (Zea mays); Postemergence, 62 g ai/ha) | Plant response rating, Barnyardgrass ([11]; 8 g ai/ha, postemergence, scale 0 to 100 (0 no effect, 100 complete control)) | Plant response rating, Barnyardgrass ([11]; Postemergence, 16 g ai/ha, scale 0 to 100) | Plant response rating, Barnyardgrass ([11]; Postemergence, 31 g ai/ha, scale 0 to 100) | Plant response rating, Foxtail, Giant ([12]; Postemergence, 62 g ai/ha) | Plant response rating, Blackgrass ([15]; Postemergence, 31 g ai/ha) | Plant response rating, Blackgrass ([15]; Postemergence, 62 g ai/ha)
